According to article PMC6337391 (Molecules, 2019):

Key:
[1] = Lipophilicity as RM values by RP-TLC; assay type: physicochemical; design: key: RM = log[(1/Rf) − 1]; conditions: methanol/water 70/30, SD < 10%
Source text: It is well-documented and discussed in the literature that lipophilicity is a very significant physicochemical property which may critically affect distribution, bioavailability, metabolic activity and elimination, all the useful characteristics for the kinetics of biologically active compounds. Thus, we attempted to determine experimentally the lipophilicity of the synthesized compounds from the RPTLC method as RM values. The method is considered to be a reliable, fast and convenient method for expressing lipophilicity. Moreover, many calculated methods were used in order to predict the logP value.
Reversed phase TLC (RP-TLC) was performed on silica gel plates impregnated with 5% (v/v) liquid paraffin in light petroleum ether. The mobile phase was a methanol/water mixture (70/30, v/v). The plates were developed in closed chromatography tanks saturated with the mobile phase at 24 °C. Spots were detected under UV light. Five individual measurements of Rf values were recorded and used for the determination of RM using the equation RM = log [(1/Rf) − 1]. (Table 3).

[2] = system: L929 mouse fibroblasts cells; assay: Cytotoxicity, propidium iodide fluorescence method; assay type: cell-based; conditions: 24-h incubation
Method: The cytotoxicity of the synthesized derivatives against L929 mouse fibroblasts cells was determined using the propidium iodide (PI) fluorescence method in the presence of different concentrations (1–100 μM) of these compounds. The results are presented in Table 4 in the form of the % cell survival values as PI% for the examined compounds. […] Chalcones c7, c8, c11, and c12 follow.
L929 mouse fibroblasts cells were cultured in EMEM supplemented with 10% horse serum, 2 mM L-glutamine, 1 mM sodium pyruvate, 0.1 mM nonessential amino acids, 1.5 g/L sodium bicarbonate, and 100 μg/mL penicillin–streptomycin at 37 °C in a humidified atmosphere with 5% CO2. L929 cells were plated into 24-well plates at a density […] and allowed to attach and grow for 24 h. The supernatant in each well then replaced with medium containing various concentrations (1, 10, 20, 50 and 100 μM) of compounds a5–12, c5–12, di, and dii–dvi, which presented the more interesting results in the in vitro experiments. After 24-h incubation, the supernatant was removed and the cells were washed with PBS. The cells were detached with 0.25% trypsin, transferred to FACS tubes, and then centrifuged (1600 rpm for 5 min) and the pellet washed with PBS. After washing, the cells in the pellet were incubated with 5 μL propidium iodide (PI) solution (1 mg/mL) for 1 min. The PI fluorescence (cell death) was determined with flow cytometry, FACS Calibur, Coulter Epics XL-MCL (Beckman, Inc., Mount Holly, NJ, USA). The analysis of flow cytometry data was performed with the WinMDI analysis program (Table 4).

[3] = Inhibition of linoleic acid lipid peroxidation (AAPH)
Source text: The water soluble 2,2′-azobis(2-amidinopropane) hydrochloride (AAPH) generates in vitro free radicals through spontaneous thermal decomposition. […] Overall, chalcones a, b, and c present anti-lipid peroxidation activity. […] The inhibiting activities for the rest b chalcones ranged from 15–44%. The intermediate ethers are moderate inhibitors. […] This might be correlated with the presence of the double C=C–COCH3 group. […] Both have a long ether chain in their structure.
In an aqueous solution spectrophotometrically at 234 nm the production of conjugated diene hydro peroxide by oxidation of sodium linoleate was monitored and recorded according to our previous published experimental conditions, using 10 µL of the 16 mM sodium linoleate solution added to the UV cuvette containing 930 μL of 0.05 M phosphate buffer, pH 7.4 pre-thermostated at 37 °C, under air by the addition of 50 μL of 40 mM AAPH solution, which was used as a free radical initiator. Ten microliters (10 μL) of the appropriate solutions of the tested compounds were added in the mixture, whereas same level of DMSO was used as a blank for the measurement of lipid oxidation. The rate of oxidation at 37 °C was monitored by recording the increase in absorption at 234 nm caused by conjugated diene hydro peroxides.

[4] = Reducing activity with the stable radical DPPH
Method: The chalcones were studied for the antioxidant activity (reducing activity RA%) by the use of the stable free radical 2,2-diphenyl-1-picrylhydrazyl radical (DPPH) at concentrations 0.05 mM after 20 and 60 min (Table 2). In this procedure, the dominant chemical reaction involved is the reduction of the DPPH radical by single electron transfer from the antioxidant. […] For the sake of comparison, we measured the RA% values for the intermediate double ethers d which were included in the Table 2.
To a solution of DPPH (final concentration 0.05 mM) in absolute ethanol an equal volume of the compounds solution in DMSO (stock solution 10 mM) dissolved in ethanol was added. Absolute ethanol was used as a control. The concentrations of the solutions of the compounds were 0.05 and 0.1 mM. The absorbance was recorded at 517 nm at room temperature after 20 and 60 min [29] (Table 2).

[5] = ABTS•+ decolorization assay
Method: The decolorization assay is used to evaluate the antioxidant activity. The ABTS^•+ cationic radical is derived from the direct oxidation of ABTS by potassium persulfate. No involvement of an intermediary radical is observed. The addition of electron-donating antioxidants reduce ABTS^•+.
Stock solutions of the tested compounds in DMSO (10 mM) were diluted. […] aliquots of each sample were added into the ABTS·^+ solution and the absorbance was recorded at room temperature. Trolox was used as a standard.

soybean lipoxygenase = molecular target: T1, soybean lipoxygenase (Glycine max, UniProt P08170); assay: biochemical; assay type: biochemical; conditions: soybean LOX, 100 μM
T1 sequence (P08170 1-839): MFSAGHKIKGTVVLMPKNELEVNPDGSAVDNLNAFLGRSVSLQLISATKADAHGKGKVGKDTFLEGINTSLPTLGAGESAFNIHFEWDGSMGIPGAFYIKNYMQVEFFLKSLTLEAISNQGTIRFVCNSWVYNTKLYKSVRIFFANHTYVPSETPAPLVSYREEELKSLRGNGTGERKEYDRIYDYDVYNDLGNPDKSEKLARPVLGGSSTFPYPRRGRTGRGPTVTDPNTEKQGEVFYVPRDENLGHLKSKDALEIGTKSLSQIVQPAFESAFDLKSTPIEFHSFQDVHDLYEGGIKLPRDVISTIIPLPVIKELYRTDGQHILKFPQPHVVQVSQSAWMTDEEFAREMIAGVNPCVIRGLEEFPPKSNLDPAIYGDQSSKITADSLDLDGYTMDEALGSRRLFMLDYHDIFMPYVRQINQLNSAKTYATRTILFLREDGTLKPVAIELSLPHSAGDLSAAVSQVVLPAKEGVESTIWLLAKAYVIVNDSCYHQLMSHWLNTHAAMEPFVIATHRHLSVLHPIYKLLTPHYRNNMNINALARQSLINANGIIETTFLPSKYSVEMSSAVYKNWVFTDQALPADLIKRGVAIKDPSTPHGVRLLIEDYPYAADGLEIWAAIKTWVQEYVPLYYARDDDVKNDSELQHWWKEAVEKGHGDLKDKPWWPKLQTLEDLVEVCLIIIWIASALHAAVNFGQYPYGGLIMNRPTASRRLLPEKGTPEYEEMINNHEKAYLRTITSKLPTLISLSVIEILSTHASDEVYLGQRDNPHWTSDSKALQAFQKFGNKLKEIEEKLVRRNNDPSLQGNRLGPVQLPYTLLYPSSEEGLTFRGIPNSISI
Source text: In our experiments we used soybean lipoxygenase. Designing agents to modulate activities of the variety of so closely homologous enzymes, such as different LOXs, require an intimate knowledge of their 3D structures, as well as information about metabolism of the potential xenobiotics. […] Due to lack of sufficiently-purified human enzymes most of the research has been done on soybean LOX [52, 53]. Although this enzyme is not identical to the mammalian one, it seems that there is a sufficient qualitative correlation between values for enzyme inhibition with the two enzymes.
In vitro study was evaluated as reported previously. The tested compounds as stock solutions were dissolved in DMSO. Ten microliters (10 μL) were incubated at room temperature with sodium linoleate ([…]) and 0.2 mL of enzyme solution (1/9 × 10^−4 w/v in saline) in buffer pH 9 (tris) at room temperature (final volume 1 mL). […] Several concentrations were used for the determination of IC50 values.

| Compound | RM [1] | 1 μM Average (% pi) ± σ [2] | 10 μM Average (% pi) ± σ [2] | 20 μM Average (% pi) ± σ [2] | 50 μM Average (% pi) ± σ [2] | 100 μM Average (% pi) ± σ [2] | AAPH% @ 100 μM (anti-lipid peroxidation) [3] | RA% 100 μM 20 min [4] | RA% 100 μM 60 min [4] | ABTS•+ Inhb. % @ 100 μM [5] | % LOX Inhb. @ 100 μM (soybean lipoxygenase) |
| --- | --- | --- | --- | --- | --- | --- | --- | --- | --- | --- | --- |
| Cc1ccc(/C=C/C(=O)c2ccc(O)cc2)o1 [a12, (E)-1-(4-hydroxyphenyl)-3-(5-methylfuran-2-yl) prop-2-en-1-one] | −0.81 | 0.88 ± 0.31% | 3.25± 2.11% | 8.12 ± 0.32% | 63.54 ± 6.16% | 63.54 ± 6.16% | 45% | 24% | 9% | 6% | 2% |
| O=C(/C=C/c1cccs1)c1ccc(OCCCOc2ccc(C(=O)/C=C/c3cccs3)cc2)cc1 [c5, (2E,2′E)-1,1′-((propane-1,3-diylbis-(oxy))bis-(4,1-phenylene)) bis-(3-(thiophen-2-yl)prop-2-en-1-one)] | 0.43 | 0.32 ± 0.45% | 0.97 ± 0.2% | 3.02 ± 1.36% | 7.26 ± 0.3% | 7.26 ± 0.3% | 46% | No | no | No | 32% |
| O=C(/C=C/C(Br)=C\c1ccccc1)c1ccc(OCCCOc2ccc(C(=O)/C=C/C(Br)=C\c3ccccc3)cc2)cc1 [c9, (2E,2′E,4E,4′E)-1,1′-((propane-1,3-diylbis(oxy))bis(4,1-phenylene))bis(4-bromo-5-phenylpenta-2,4-dien-1-one)] | −0.86 | 12.5 ± 10.31% | 15.88 ± 6.31% | 28.76 ± 2.74% | 29.53 ± 6.87% | 29.53 ± 6.87% | 32% | No | no | No | 24.5% |
| O=C(/C=C/c1ccco1)c1ccc(O)cc1 [a10, (E)-3-(furan-2-yl)-1-(4-hydroxyphenyl) prop-2-en-1-one] | −0.06 | 3.03 ± 0.88% | 2.25 ± 0.38% | 2.39 ± 1.08% | 17.15 ± 0.32% | 17.15 ± 0.32% | 24% | 23% | 10% | 2% | 23% |
| O=C(/C=C/C(Br)=C\c1ccccc1)c1ccc(O)cc1 [a9, (2E,4E)-4-bromo-1-(4-hydroxyphenyl)-5-phenylpenta-2,4-dien-1-one] | −0.82 | 0.55 ± 0.09% | 0.59 ± 0.83% | 2.7 ± 0.68% | 7.59 ± 0.13% | 7.59 ± 0.13% | 33% | 10% | 1% | No | 16% |
